Data: the NIST ThermoML archive (doi:10.1021/je700254t)

Experiment: xn = mol fraction of the nth substance listed
Details: 101.3 kPa, Liquid

CCCO [propan-1-ol] + c1ccccc1
x1 = 1
Details | mass density [kg/m3]
288.15 K | 807.69
293.15 K | 803.703
298.15 K | 799.692
303.15 K | 795.65
308.15 K | 791.576
313.15 K | 787.466

ClC(Cl)Cl [trichloromethane] + CCCO
mass density [kg/m3]
Details | 288.15 K | 293.15 K | 298.15 K | 303.15 K | 308.15 K | 313.15 K
x2 = 0 | 1498.08 | 1488.64 | 1479.15 | 1469.61 | 1460.03 | 1450.41
x2 = 0.0493 | 1465.28 | 1456.03 | 1446.74 | 1437.41 | 1428.01 | 1418.58
x2 = 0.0992 | 1432.56 | 1423.54 | 1414.47 | 1405.35 | 1396.17 | 1386.95
x2 = 0.1499 | 1399.07 | 1390.3 | 1381.48 | 1372.61 | 1363.67 | 1354.7
x2 = 0.2002 | 1365.96 | 1357.46 | 1348.9 | 1340.28 | 1331.6 | 1322.86
x2 = 0.2496 | 1333.59 | 1325.35 | 1317.05 | 1308.69 | 1300.27 | 1291.8
x2 = 0.2999 | 1300.43 | 1292.46 | 1284.43 | 1276.34 | 1268.19 | 1260.01
x2 = 0.3493 | 1267.61 | 1259.92 | 1252.16 | 1244.35 | 1236.47 | 1228.55
x2 = 0.4004 | 1233.49 | 1226.07 | 1218.59 | 1211.06 | 1203.46 | 1195.83
x2 = 0.4502 | 1200.08 | 1192.93 | 1185.74 | 1178.48 | 1171.16 | 1163.79
x2 = 0.5001 | 1166.15 | 1159.29 | 1152.38 | 1145.42 | 1138.38 | 1131.32
x2 = 0.5497 | 1132.24 | 1125.66 | 1119.03 | 1112.35 | 1105.6 | 1098.81
x2 = 0.5999 | 1097.62 | 1091.33 | 1084.99 | 1078.61 | 1072.15 | 1065.65
x2 = 0.6497 | 1062.78 | 1056.79 | 1050.75 | 1044.65 | 1038.49 | 1032.31
x2 = 0.7001 | 1027.34 | 1021.65 | 1015.91 | 1010.11 | 1004.26 | 998.364
x2 = 0.7499 | 991.931 | 986.531 | 981.083 | 975.586 | 970.031 | 964.415
x2 = 0.7998 | 956.019 | 950.913 | 945.767 | 940.572 | 935.323 | 930.03
x2 = 0.8503 | 919.243 | 914.435 | 909.588 | 904.699 | 899.757 | 894.778
x2 = 0.9002 | 882.47 | 877.949 | 873.397 | 868.803 | 864.163 | 859.496
x2 = 0.95 | 845.487 | 841.239 | 836.96 | 832.652 | 828.298 | 823.912
